Measurements from US10604514B2, “6-(5-membered heteroaryl)isoquinolin-3-yl carboxamides and preparation and use thereof” (Samumed, LLC, priority 2017, dated 2020).
Read-outs that look alike come from different tables or passages of the source.

Assays:
[1] = test system: Wnt activity (Sp5-Luc reporter in SW480 colon carcinoma cells); test: Wnt activity screening assay (Sp5-Luc reporter gene assay); type: cell-based, human; conditions: for EC50: Sp5-Luc reporter, SW480 cells, 36 to 48 hours
How it was run: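 Compounds at 10 points (1:3 steps, top 10 μM, 0.1% DMSO final) were incubated 36 to 48 h at 37° C with stable Sp5-Luc SW480 reporter cells in 1% FBS medium. Luciferase luminescence was then read and expressed relative to DMSO-only cells. Four-parameter variable-slope fitting yielded EC50 values.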

[2] = molecular target: GSK3β kinase (Homo sapiens (Human), UniProt P49841); test: GSK3β kinase assay (Ser/Thr 09 peptide Z-lyte, FRET); type: biochemical; conditions: method text calls the value IC50;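 note: Coumarin/fluorescein emission ratio converted to percent phosphorylation against unphosphorylated (0%) and phosphorylated (100%) controls, 1 h compound incubation at room temperature, 11-point threefold dilutions from 10 µM, run in duplicate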
[3] = test system: Tau phosphorylation at Ser396 (pSer396), SH-SY5Y cells; test: Tau phosphorylation at Ser396 (pSer396) in SH-SY5Y cells, ELISA/western blot; type: cell-based, human; conditions: SH-SY5Y cells, overnight (16-18 h), read-out: pSer396 Tau EC50;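 note: cell lysates probed for reduced Tau pSer396 via ELISA (colorimetric) or western blot (chemiluminescence), both with one shared pSer396 antibody, EC50 for lowering phosphorylation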
[4] = test system: SW480 colon carcinoma cells; test: Cell viability assay (CellTiter-Glo) in SW480 cells; type: cell-based, human; conditions: for EC50: cell viability, SW480 cells, four days, CellTiter-Glo; for inhibition at 10 µM: SW480, read-out: percent inhibition at 10 μM;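 for all read-outs here: SW480 cells stably carrying an Sp5-luciferase TCF/LEF reporter, luminescent ATP signal as viability measure, DMSO-treated cells as control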
[5] = test system: LL29 cells (primary human fibroblasts derived from IPF patients), α-smooth muscle actin; test: Inhibition of fibrotic process: αSMA in TGF-β1-treated primary human fibroblasts from IPF patients (LL29 cells); type: cell-based; conditions: for EC50: % αSMA-positive LL29 cells, TGF-β1 20 ng/mL, 4 days; for inhibition at 10 µM: read-out: percent inhibition at 10 μM
How it was run: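 Read-out is the percentage of αSMA-positive cells by high-content imaging, excluding SYTOX green-positive dead/apoptotic cells, normalized to TGF-β1-only wells on the same plate. LL29 cells were exposed for 4 days at 37 °C to 20 ng/mL TGF-β1 plus 11-point, 2-fold compound dilutions in 0.1% DMSO.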

[6] = test system: IL-6; test: IL-6 inhibition in LPS-stimulated human peripheral blood mononuclear cells (HTRF); type: cell-based; conditions: for inhibition at 10 µM: read-out: percent value in parentheses below EC50 >10; for EC50: IL-6, LPS-stimulated huPBMCs, HTRF
How it was run: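 EC50 from a 4-parameter fit of DMSO-normalized HTRF (665/620 nm) IL-6 signal, duplicates. Compound was added to fresh human PBMCs in 1% FBS RPMI for 2 h (top 10 μM, 3-fold, 0.25% DMSO) before 22 h stimulation with LPS at 50 ng/mL, 37 °C.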

[7] = molecular target: DYRK1A kinase (Homo sapiens (Human), UniProt Q13627); test: DYRK1A kinase assay (Ser/Thr 18 peptide Z-lyte, FRET)

Chain of GSK3β kinase (P49841 whole entry): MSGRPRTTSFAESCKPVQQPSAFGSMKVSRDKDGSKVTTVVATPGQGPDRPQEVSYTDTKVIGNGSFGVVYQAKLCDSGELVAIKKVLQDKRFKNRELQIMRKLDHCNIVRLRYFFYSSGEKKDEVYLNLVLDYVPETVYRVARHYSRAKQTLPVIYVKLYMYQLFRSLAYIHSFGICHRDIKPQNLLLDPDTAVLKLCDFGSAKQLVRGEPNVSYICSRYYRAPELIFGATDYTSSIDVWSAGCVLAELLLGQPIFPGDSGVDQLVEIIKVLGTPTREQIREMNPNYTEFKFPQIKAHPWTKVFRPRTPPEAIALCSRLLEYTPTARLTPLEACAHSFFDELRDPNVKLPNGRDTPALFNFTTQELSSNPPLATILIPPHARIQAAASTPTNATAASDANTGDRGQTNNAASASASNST

Row | EC50 ([1]; Homo sapiens) [nM] | EC50 [2] [nM] | EC50 ([3]; Homo sapiens) [nM] | EC50 ([4]; Homo sapiens, 96 h) [nM] | EC50 ([6]; Homo sapiens, PBMC) [nM] | EC50 [7] [nM] | EC50 [1] [nM] | EC50 [3] [nM] | EC50 [4] [nM] | EC50 [6] [nM] | EC50 ([7]; DYRK1A kinase, method text calls the value IC50) [nM] | Compound | inhibition at 10 µM ([4]; Homo sapiens) [%] | EC50 ([5]; Homo sapiens, Fibroblast, 96 h) [nM] | inhibition at 10 µM ([5]; Homo sapiens, Fibroblast) [%] | inhibition at 10 µM ([6]; Homo sapiens, PBMC) [%] | inhibition at 10 µM ([1]; Homo sapiens, SW480, read-out: percent inhibition at 10 μM) [%] | EC50 [5] [nM]
1 | 3850 | 407 | > 10000 | > 10000 | > 10000 | 2 | – | – | – | – | – | Cn1cc(-c2ccc3cnc(NC(=O)c4cc[n+]([O-])c(N5CC[N+](C)([O-])CC5)c4)cc3c2)nn1 [Compound 225, 1-methyl-4-(4-((6-(1-methyl-1H-1,2,3-triazol-4-yl)isoquinolin-3-yl)carbamoyl)-1-oxidopyridin-2-yl)piperazine 1-oxide] | 28.7 | > 10000 | 24.8 | 6.9 | – | –
2 | > 10000 | 1190 | > 10000 | > 10000 | > 10000 | 4 | – | – | – | – | – | [2H]C([2H])([2H])[N+]1([O-])CCN(c2cc(C(=O)Nc3cc4cc(-c5cn(C)nn5)ccc4cn3)ccn2)CC1 [Compound 226, 1-(Methyl-d3)-4-(4-((6-(1-methyl-1H-1,2,3-triazol-4-yl)isoquinolin-3-yl)carbamoyl)pyridin-2-yl)piperazine 1-oxide] | 46.9 | > 10000 | 33.2 | 4.5 | 31.6 | –
3 | – | 50 | – | – | – | – | 2780 | 594 | 1570 | 388 | 9 | trans-N-(6-(2-methyloxazol-5-yl)isoquinolin-3-yl)-4-((propan-2-yl-1,1,1,3,3,3-d6)amino)cyclohexane-1-carboxamide [Compound 141] | – | – | – | – | – | 321
